Source: the supplement of paper PMC8882468

What was measured:
Test in all cases: CTG-3D luminescence at 96 h relative to day-0 seeding control (ratio to day 0); higher = more growth / less cytotoxicity
HCI-024 = tested on: HCI-024 (organoid from a breast cancer xenograft)
Procedure: (§1)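 PDxO 3D drug screen (set 2), 8-point dose, 96 h; CTG-3D luminescence normalised to day-0 seeding control (mean of 4 wells each).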

HCI-010 = tested on: HCI-010 (organoid from a breast cancer xenograft)
Procedure: as §1

HCI-016 = tested on: HCI-016 (organoid from a triple-negative breast cancer xenograft)
Procedure: as §1

HCI-003.E2 = tested on: HCI-003.E2 (organoid from an ER-positive breast cancer xenograft)
Procedure: as §1

HCI-012 = tested on: HCI-012 (organoid from a breast cancer xenograft)
Procedure: as §1

CC/C(=C(\c1ccc(O)cc1)c1ccc(OCCN(C)C)cc1)c1ccccc1 [4-hydroxytamoxifen]
CTG-3D luminescence at 96 h
Conditions | 12.5 pM | 0.00025 µM | 0.005 µM | 0.1 µM | 1 µM | 10 µM | 100 µM | 625 fM
HCI-010, days in culture: 79 | 2.04 | 1.84 | 1.96 | 1.93 | 1.9 | 1.48 | 0.00321 | 2.05
HCI-010, days in culture: 86 | 1.97 | 2.48 | 2.21 | 2.15 | 2.19 | 1.35 | 0.0109 | 2.16
HCI-010, days in culture: 102 | 1.1 | 1.13 | 1.07 | 1.2 | 1.23 | 0.95 | 0.00505 | 0.88
HCI-010, days in culture: 164 | 1.4 | 1.46 | 1.45 | 1.45 | 1.38 | 0.899 | 0.00677 | 1.23
HCI-012, days in culture: 214 | 3.56 | 3.14 | 1.65 | 2.13 | 2.18 | 0.301 | 0.00686 | 1.93
HCI-012, days in culture: 243 | 2.35 | 2.75 | 1.8 | 2.23 | 1.49 | 1.87 | 0.00753 | 2.29
HCI-012, days in culture: 256 | 1.59 | 1.79 | 2.4 | 3.03 | 2.03 | 1.01 | -0.000283 | 2.33
HCI-012, days in culture: 284 | 2.11 | 2.32 | 1.6 | 2.02 | 1.71 | 1.47 | 0.00771 | 3.35
HCI-016, days in culture: 305 | 2.77 | 4.59 | 2.65 | 4.18 | 2.47 | 1.67 | 0.0261 | 4.99
HCI-016, days in culture: 327 | 0.944 | 0.968 | 2.39 | 2.26 | 1.5 | 1.58 | 0.0115 | 1.27
HCI-016, days in culture: 341 | 2.5 | 1.22 | 2.22 | 1.54 | 1.41 | 1.48 | 0.00227 | 2.1
HCI-016, days in culture: 397 | 1.82 | 2.24 | 1.56 | 1.83 | 1.91 | 2.17 | 0.0134 | 2
HCI-024, days in culture: 202 | 1.48 | 1.18 | 1.56 | 1.67 | 0.953 | 1.09 | 0.00631 | 1.74
HCI-024, days in culture: 231 | 1.05 | 1.07 | 1.18 | 0.978 | 0.782 | 0.83 | 0.00137 | 1.07
HCI-024, days in culture: 254 | 1.94 | 1.16 | 1.05 | 1.38 | 1.28 | 0.958 | 0.00459 | 0.909

HCI-003.E2
Conditions | CTG-3D luminescence at 96 h
12.5 pM | 2.27
0.00025 µM | 2.32
0.005 µM | 2.33
0.1 µM | 2.5
1 µM | 1.94
10 µM | 1.18
100 µM | 0.0128
625 fM | 2.7
